From PMC4105339 (Antiviral research, 2014)
Marks after values point to notes of the source that are not given here.

Key:
[1] = tested on: A/Fukui/45/04 H3N2 E119V mutant neuraminidase
[2] = tested on: B/Perth/211/01 D197E mutant neuraminidase
[3] = molecular target: B/Perth/211/01 D197E mutant neuraminidase; details: cited from earlier work
[4] = tested on: A/Mississippi/03/01 H1N1 H274Y mutant neuraminidase
H3N2 E119V neuraminidase = details: cited from earlier work

Structure (SMILES)	Time (T½) for reaction rates to reach half the maximum rate of the uninhibited control [1] [min]	Time (T½) for reaction rates to reach half the maximum rate of the uninhibited control [2]	IC50 [3] [µM]	Time (T½) for reaction rates to reach half the maximum rate of the uninhibited control [4] [min]	changes in IC50 from 10 to 60 min in the preincubation reaction (H3N2 E119V neuraminidase) [fold]
CCC(CC)[C@H](NC(C)=O)[C@@H]1[C@H](O)[C@@H](C(=O)O)C[C@H]1N=C(N)N [Peramivir, peramivir]	>240	18.8 min	0.0415	–	–
CC(=O)N[C@H]1[C@H]([C@H](O)[C@H](O)CO)OC(C(=O)O)=C[C@@H]1N=C(N)N [Zanamivir]	–	17.0^* min	0.258	43.2	1.9
